Active and inactive are the calls of the source. No cut-off for these calls is given here.
Assays:
DNA topoisomerase 1 = biological target: T1, DNA topoisomerase 1 (Homo sapiens, UniProt P11387); assay: Inhibition of human DNA topoisomerase 1-mediated relaxation of supercoiled DNA by gel electrophoresis
T1 sequence (P11387 whole entry): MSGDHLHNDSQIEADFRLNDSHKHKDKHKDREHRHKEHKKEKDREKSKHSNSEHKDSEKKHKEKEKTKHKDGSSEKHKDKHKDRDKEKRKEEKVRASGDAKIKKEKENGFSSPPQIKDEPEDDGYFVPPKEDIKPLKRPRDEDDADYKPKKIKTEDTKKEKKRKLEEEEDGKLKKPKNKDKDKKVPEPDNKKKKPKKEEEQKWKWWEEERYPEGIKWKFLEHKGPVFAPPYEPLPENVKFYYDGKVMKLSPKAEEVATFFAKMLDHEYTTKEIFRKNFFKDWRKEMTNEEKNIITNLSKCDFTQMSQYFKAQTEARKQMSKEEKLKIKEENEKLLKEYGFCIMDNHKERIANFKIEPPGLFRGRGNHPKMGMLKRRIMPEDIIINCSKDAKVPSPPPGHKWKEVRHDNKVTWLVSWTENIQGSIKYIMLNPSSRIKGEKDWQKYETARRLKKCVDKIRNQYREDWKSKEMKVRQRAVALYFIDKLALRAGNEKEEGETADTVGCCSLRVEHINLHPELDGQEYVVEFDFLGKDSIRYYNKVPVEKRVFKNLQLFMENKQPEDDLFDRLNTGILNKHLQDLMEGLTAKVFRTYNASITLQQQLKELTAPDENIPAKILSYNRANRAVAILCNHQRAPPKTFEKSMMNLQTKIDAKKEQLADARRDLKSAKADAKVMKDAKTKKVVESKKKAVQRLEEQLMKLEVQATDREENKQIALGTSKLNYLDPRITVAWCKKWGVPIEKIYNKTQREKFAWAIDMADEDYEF

A549 = assay: Cytotoxicity against human A549 cells at 25 uM after 48 hrs by WST8 assay; format: functional, cell-based
PANC-1 = assay: Cytotoxicity against human PANC1 cells at 25 uM after 48 hrs by WST8 assay; format: functional, cell-based
[1] = biological target: DNA topoisomerase 2-alpha (Homo sapiens, UniProt P11388); assay: Inhibition of human DNA topoisomerase 2-mediated relaxation of supercoiled DNA by gel electrophoresis
DNA topoisomerase 2-alpha, sequence (P11388 whole entry): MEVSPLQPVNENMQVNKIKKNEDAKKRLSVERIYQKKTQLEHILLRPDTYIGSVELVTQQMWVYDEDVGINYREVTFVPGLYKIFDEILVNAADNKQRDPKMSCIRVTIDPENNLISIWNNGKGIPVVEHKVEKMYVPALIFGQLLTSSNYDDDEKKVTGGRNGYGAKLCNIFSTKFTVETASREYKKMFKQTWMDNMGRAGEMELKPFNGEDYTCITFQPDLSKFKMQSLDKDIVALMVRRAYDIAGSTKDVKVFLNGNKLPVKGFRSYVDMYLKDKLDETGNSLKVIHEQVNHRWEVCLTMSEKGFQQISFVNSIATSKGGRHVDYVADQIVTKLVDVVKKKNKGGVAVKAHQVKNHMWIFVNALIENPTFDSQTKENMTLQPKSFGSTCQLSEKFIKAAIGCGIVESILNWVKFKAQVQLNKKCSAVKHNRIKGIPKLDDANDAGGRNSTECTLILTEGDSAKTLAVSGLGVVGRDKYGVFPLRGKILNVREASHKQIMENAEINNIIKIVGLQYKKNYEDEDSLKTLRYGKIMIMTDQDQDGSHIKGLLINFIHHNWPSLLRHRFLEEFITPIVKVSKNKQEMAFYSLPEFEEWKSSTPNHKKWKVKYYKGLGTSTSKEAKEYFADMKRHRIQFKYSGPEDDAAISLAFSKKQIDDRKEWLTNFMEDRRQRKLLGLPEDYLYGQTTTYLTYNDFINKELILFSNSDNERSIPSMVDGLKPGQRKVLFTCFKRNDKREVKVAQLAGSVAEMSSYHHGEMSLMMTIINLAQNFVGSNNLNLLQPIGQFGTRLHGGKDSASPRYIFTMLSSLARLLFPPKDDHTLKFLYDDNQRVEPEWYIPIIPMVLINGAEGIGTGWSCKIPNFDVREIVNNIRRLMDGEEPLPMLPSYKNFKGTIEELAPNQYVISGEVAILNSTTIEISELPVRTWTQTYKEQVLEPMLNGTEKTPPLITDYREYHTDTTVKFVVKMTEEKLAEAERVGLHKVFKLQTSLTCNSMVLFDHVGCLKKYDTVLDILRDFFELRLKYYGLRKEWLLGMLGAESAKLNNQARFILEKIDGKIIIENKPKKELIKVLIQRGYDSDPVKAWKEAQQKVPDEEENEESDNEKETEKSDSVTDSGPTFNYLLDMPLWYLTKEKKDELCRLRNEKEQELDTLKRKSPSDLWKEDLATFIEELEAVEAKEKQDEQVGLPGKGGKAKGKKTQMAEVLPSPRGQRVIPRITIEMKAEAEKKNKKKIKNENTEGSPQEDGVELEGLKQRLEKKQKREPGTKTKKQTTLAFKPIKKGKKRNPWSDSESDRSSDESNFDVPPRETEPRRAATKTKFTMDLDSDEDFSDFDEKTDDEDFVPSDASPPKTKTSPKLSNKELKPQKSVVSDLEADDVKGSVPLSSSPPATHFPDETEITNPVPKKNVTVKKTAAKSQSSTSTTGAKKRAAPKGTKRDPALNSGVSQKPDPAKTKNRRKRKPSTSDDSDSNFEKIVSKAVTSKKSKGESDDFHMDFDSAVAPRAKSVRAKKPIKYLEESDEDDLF

HL-60 = assay: Cytotoxicity against human HL60 cells at 25 uM after 48 hrs by WST8 assay; format: functional, cell-based
PC-3 = assay: Cytotoxicity against human PC3 cells at 25 uM after 48 hrs by WST8 assay; format: functional, cell-based

CC(C)=CCC[C@](C)(O)[C@H]1CC[C@]2(C)[C@@H]1[C@H](O)C[C@@H]1[C@@]3(C)CC[C@H](O)C(C)(C)[C@@H]3[C@@H](O[C@@H]3O[C@H](CO)[C@@H](O)[C@H](O)[C@H]3O[C@H]3O[C@@H](C)[C@H](O)[C@@H](O)[C@H]3O)C[C@]12C
IC50 (DNA topoisomerase 1): > 250 µM
growth inhibition (GI) (A549): inactive
growth inhibition (GI) (PANC-1): inactive
IC50 [1]: > 250 µM
growth inhibition (GI) (HL-60): inactive
growth inhibition (GI) (PC-3): inactive

CC(C)=CCC[C@@](C)(O)[C@H]1CC[C@]2(C)[C@@H]1[C@H](O)C[C@@H]1[C@@]3(C)CC[C@H](O)C(C)(C)[C@@H]3[C@@H](O[C@@H]3O[C@H](CO)[C@@H](O)[C@H](O)[C@H]3O[C@H]3O[C@@H](C)[C@H](O)[C@@H](O)[C@H]3O)C[C@]12C
IC50 (DNA topoisomerase 1): > 250 µM
growth inhibition (GI) (A549): inactive
growth inhibition (GI) (PANC-1): inactive
IC50 [1]: > 250 µM
growth inhibition (GI) (HL-60): inactive
growth inhibition (GI) (PC-3): inactive

CC(C)=CCC[C@@](C)(O)[C@H]1CC[C@]2(C)[C@@H]1[C@H](O)C[C@@H]1[C@@]3(C)CC[C@H](O[C@@H]4O[C@H](CO)[C@@H](O)[C@H](O)[C@H]4O[C@@H]4O[C@H](CO)[C@@H](O)[C@H](O)[C@H]4O)C(C)(C)[C@@H]3CC[C@]12C
IC50 (DNA topoisomerase 1): > 250 µM
growth inhibition (GI) (A549): inactive
growth inhibition (GI) (PANC-1): inactive
IC50 [1]: > 250 µM
growth inhibition (GI) (HL-60): inactive
growth inhibition (GI) (PC-3): inactive

C[C@H]1[C@H](C)CC[C@]2(C(=O)O[C@@H]3O[C@H](CO)[C@@H](O)[C@H](O)[C@H]3O)CC[C@]3(C(=O)O)C(=CC[C@@H]4[C@@]5(C)CC[C@H](O)C(C)(C)[C@@H]5CC[C@]43C)[C@H]12
IC50 (DNA topoisomerase 1): > 250 µM
growth inhibition (GI) (A549): inactive
growth inhibition (GI) (PANC-1): inactive
IC50 [1]: > 250 µM
growth inhibition (GI) (HL-60): inactive
growth inhibition (GI) (PC-3): inactive

C[C@H]1[C@H](C)CC[C@]2(C(=O)O[C@@H]3O[C@H](CO)[C@@H](O)[C@H](O)[C@H]3O)CC[C@]3(C(=O)O)C(=CC[C@@H]4[C@@]5(C)CC[C@H](O[C@H]6O[C@@H](C)[C@H](O)[C@@H](O)[C@@H]6O)C(C)(C)[C@@H]5CC[C@]43C)[C@H]12
IC50 (DNA topoisomerase 1): > 250 µM
growth inhibition (GI) (A549): inactive
growth inhibition (GI) (PANC-1): inactive
IC50 [1]: > 250 µM
growth inhibition (GI) (HL-60): inactive
growth inhibition (GI) (PC-3): inactive

C[C@H]1[C@H](C)CC[C@]2(C(=O)O)CC[C@]3(C(=O)O)C(=CC[C@@H]4[C@@]5(C)CC[C@H](O[C@H]6O[C@@H](C)[C@H](O)[C@@H](O)[C@H]6O)C(C)(C)[C@@H]5CC[C@]43C)[C@H]12
IC50 (DNA topoisomerase 1): > 250 µM
growth inhibition (GI) (A549): inactive
growth inhibition (GI) (PANC-1): inactive
IC50 [1]: > 250 µM
growth inhibition (GI) (HL-60): inactive
growth inhibition (GI) (PC-3): inactive

C[C@H]1[C@H](C)CC[C@]2(C(=O)O[C@@H]3O[C@H](CO)[C@@H](O)[C@H](O)[C@H]3O)CC[C@]3(C(=O)O)C(=CC[C@@H]4[C@@]5(C)CC[C@H](O[C@@H]6O[C@H](CO)[C@@H](O[C@H]7O[C@@H](C)[C@H](O)[C@@H](O)[C@H]7O)[C@H](O)[C@H]6O)C(C)(C)[C@@H]5CC[C@]43C)[C@H]12
IC50 (DNA topoisomerase 1): > 250 µM
growth inhibition (GI) (A549): inactive
growth inhibition (GI) (PANC-1): inactive
IC50 [1]: > 250 µM
growth inhibition (GI) (HL-60): inactive
growth inhibition (GI) (PC-3): inactive

C[C@H]1[C@H](C)CC[C@]2(C(=O)O[C@@H]3O[C@H](CO)[C@@H](O)[C@H](O)[C@H]3O[C@@H]3OC[C@H](O)[C@H](O)[C@H]3O)CC[C@]3(C(=O)O)C(=CC[C@@H]4[C@@]5(C)CC[C@H](O[C@@H]6O[C@H](CO)[C@@H](O)[C@H](O)[C@H]6O)C(C)(C)[C@@H]5CC[C@]43C)[C@H]12
IC50 (DNA topoisomerase 1): > 250 µM
growth inhibition (GI) (A549): inactive
growth inhibition (GI) (PANC-1): inactive
IC50 [1]: > 250 µM
growth inhibition (GI) (HL-60): inactive
growth inhibition (GI) (PC-3): inactive

CC(C)=CC/C=C(/C)[C@H]1CC[C@]2(C)[C@@H]1[C@H](O)C[C@@H]1[C@@]3(C)CC[C@H](O)C(C)(C)[C@@H]3[C@@H](O)C[C@]12C
IC50 (DNA topoisomerase 1): > 250 µM
growth inhibition (GI) (A549): inactive
growth inhibition (GI) (PANC-1): inactive
IC50 [1]: > 250 µM
growth inhibition (GI) (HL-60): inactive
growth inhibition (GI) (PC-3): inactive

C[C@H]1[C@H](C)CC[C@]2(C(=O)O)CC[C@]3(C(=O)O)C(=CC[C@@H]4[C@@]5(C)C[C@@H](O)[C@H](O)C(C)(C)[C@@H]5CC[C@]43C)[C@H]12
IC50 (DNA topoisomerase 1): > 250 µM
growth inhibition (GI) (A549): inactive
growth inhibition (GI) (PANC-1): inactive
IC50 [1]: > 250 µM
growth inhibition (GI) (HL-60): inactive
growth inhibition (GI) (PC-3): inactive

C=C(C)[C@@H]1CC[C@]2(C)CC[C@]3(C)[C@@H](CC[C@@H]4[C@@]5(C)CC[C@H](OC(C)=O)C(C)(C)[C@@H]5CC[C@]43C)[C@H]12
growth inhibition (GI) (A549): inactive
growth inhibition (GI) (PANC-1): inactive
IC50 [1]: > 250 µM
growth inhibition (GI) (HL-60): inactive
growth inhibition (GI) (PC-3): inactive

CC(C)=CCC[C@](C)(O)[C@H]1CC[C@]2(C)[C@@H]1[C@H](O)C[C@@H]1[C@@]3(C)CC[C@H](O[C@@H]4O[C@H](CO)[C@@H](O)[C@H](O)[C@H]4O[C@@H]4O[C@H](CO)[C@@H](O)[C@H](O)[C@H]4O)C(C)(C)[C@@H]3CC[C@]12C
IC50 (DNA topoisomerase 1): > 250 µM
growth inhibition (GI) (A549): inactive
growth inhibition (GI) (PANC-1): inactive
IC50 [1]: > 250 µM
growth inhibition (GI) (HL-60): inactive
growth inhibition (GI) (PC-3): inactive

C[C@H]1[C@H](C)CC[C@]2(C(=O)O[C@@H]3O[C@H](CO)[C@@H](O)[C@H](O)[C@H]3O)CC[C@]3(C(=O)O)C(=CC[C@@H]4[C@@]5(C)CC[C@H](O[C@@H]6O[C@H](CO)[C@@H](O)[C@H](O)[C@H]6O)C(C)(C)[C@@H]5CC[C@]43C)[C@H]12
IC50 (DNA topoisomerase 1): > 250 µM
growth inhibition (GI) (A549): inactive
growth inhibition (GI) (PANC-1): inactive
IC50 [1]: > 250 µM
growth inhibition (GI) (HL-60): inactive
growth inhibition (GI) (PC-3): inactive

C[C@H]1[C@H](C)CC[C@]2(C(=O)O)CC[C@]3(C(=O)O)C(=CC[C@@H]4[C@@]5(C)CC[C@H](O[C@@H]6O[C@H](CO)[C@@H](O)[C@H](O)[C@H]6O)C(C)(C)[C@@H]5CC[C@]43C)[C@H]12
IC50 (DNA topoisomerase 1): > 250 µM
growth inhibition (GI) (A549): inactive
growth inhibition (GI) (PANC-1): inactive
IC50 [1]: > 250 µM
growth inhibition (GI) (HL-60): inactive
growth inhibition (GI) (PC-3): inactive

CC(C)=CCC[C@](C)(O[C@@H]1O[C@H](CO)[C@@H](O)[C@H](O)[C@H]1O)[C@H]1CC[C@]2(C)[C@@H]1[C@H](O)C[C@@H]1[C@@]3(C)CC[C@H](O[C@@H]4O[C@H](CO)[C@@H](O)[C@H](O)[C@H]4O)C(C)(C)[C@@H]3CC[C@]12C [GINSENOSIDE F2]
IC50 (DNA topoisomerase 1): > 250 µM
growth inhibition (GI) (A549): inactive
growth inhibition (GI) (PANC-1): inactive
IC50 [1]: > 250 µM
growth inhibition (GI) (HL-60): inactive
growth inhibition (GI) (PC-3): inactive

C=C(C)[C@@H]1CC[C@]2(C)CC[C@]3(C)[C@H](CC[C@@H]4[C@@]5(C)CC[C@H](O)C(C)(C)[C@@H]5CC[C@]43C)[C@@H]12 [LUPEOL]
growth inhibition (GI) (A549): inactive
growth inhibition (GI) (PANC-1): inactive
IC50 [1]: > 250 µM
growth inhibition (GI) (HL-60): inactive
growth inhibition (GI) (PC-3): inactive

Reference: ChEMBL document CHEMBL1157938, “Cytotoxicity and inhibition of DNA topoisomerase I of polyhydroxylated triterpenoids and triterpenoid glycosides” (Bioorg Med Chem Lett, 2010)
